Source: ChEMBL document CHEMBL1201862, “PubChem BioAssay data set” (2004)
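The compound was tested at five concentrations on cells cultured in 96-well plates, with a 48-hour exposure period. GI50: concentration for 50% inhibition of growth.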 Calls of active or inactive are those of the source. Rule as the data show it: active = GI50 up to about 1.1 µM and inactive = higher.

Experiments:
Assay in all cases: inhibition of tumour cell growth, NCI panel, 48 h
MOLT-4 = system: MOLT-4
M14 = system: M14
A549 = system: A549
RPMI-8226 = system: RPMI-8226
IGROV-1 = system: IGROV-1
SW-620 = system: SW-620
EKVX = system: EKVX
DMS-273 = system: DMS-273
U-251 = system: U-251
SK-MEL-28 = system: SK-MEL-28
OVCAR-3 = system: OVCAR-3
NCI/ADR-RES = system: NCI/ADR-RES
RXF 393 = system: RXF 393
HCC 2998 = system: HCC 2998
SK-MEL-5 = system: SK-MEL-5
A498 = system: A498
OVCAR-4 = system: OVCAR-4
MCF7 = system: MCF7
DMS-114 = system: DMS-114

Compound	GI50 (MOLT-4)	GI50 (M14)	GI50 (A549)	GI50 (RPMI-8226)	GI50 (IGROV-1)	GI50 (SW-620)	GI50 (EKVX)	GI50 (DMS-273)	GI50 (U-251)	GI50 (SK-MEL-28)	GI50 (OVCAR-3)	GI50 (NCI/ADR-RES)	GI50 (RXF 393)	GI50 (HCC 2998)	GI50 (SK-MEL-5)	GI50 (A498)	GI50 (OVCAR-4)	GI50 (MCF7)	GI50 (DMS-114)
O=C(NCCc1ccccc1)C1C(=O)C(=O)N(CCc2ccccc2)C1=O (centres undefined)	> 100 µM (inactive)	> 100 µM (inactive)	> 100 µM (inactive)	> 100 µM (inactive)	> 100 µM (inactive)	> 100 µM (inactive)	> 100 µM (inactive)	> 100 µM (inactive)	> 100 µM (inactive)	> 100 µM (inactive)	> 100 µM (inactive)								
CCC(c1c[nH]c2ccc(Br)cc12)c1c[nH]c2ccc(Br)cc12	1.94 µM (inactive)	3.22 µM (inactive)	3.72 µM (inactive)	2.5 µM (inactive)	4.41 µM (inactive)	3.94 µM (inactive)	5.14 µM (inactive)		3.72 µM (inactive)	11.5 µM (inactive)	3.96 µM (inactive)	3.08 µM (inactive)	2.32 µM (inactive)	2.19 µM (inactive)	8.11 µM (inactive)	3.79 µM (inactive)	2.75 µM (inactive)	3.98 µM (inactive)	
O=C1OC(c2ccccc2)=N/C1=C\c1ccc([N+](=O)[O-])cc1	15.1 µM (inactive)	> 100 µM (inactive)	82 µM (inactive)	30.2 µM (inactive)	27.9 µM (inactive)	> 100 µM (inactive)	36 µM (inactive)		19.7 µM (inactive)	> 100 µM (inactive)	57.4 µM (inactive)	8.97 µM (inactive)	32.9 µM (inactive)	> 100 µM (inactive)	66.8 µM (inactive)	35.4 µM (inactive)	34.5 µM (inactive)	60 µM (inactive)	
CCCCCC(O)C1C(=O)OC(C)C(O)/C=C/C=C/C=C/C=C\C=C(\C)C(O)CC(O)CC(O)CC(O)CC(O)CC(O)CC1O (centres undefined)	> 50 µM (inactive)	> 50 µM (inactive)	> 50 µM (inactive)	> 50 µM (inactive)	> 50 µM (inactive)	> 50 µM (inactive)	> 50 µM (inactive)		> 50 µM (inactive)	> 50 µM (inactive)	> 50 µM (inactive)	> 50 µM (inactive)	> 50 µM (inactive)	> 50 µM (inactive)	> 50 µM (inactive)	> 50 µM (inactive)	11.1 µM (inactive)	> 50 µM (inactive)	
CC1=C/C(=N\NC(N)=S)C(C(O)(C(F)(F)F)C(F)(F)F)C(C)(C)C1 (centres undefined)	> 10 µM (inactive)	> 10 µM (inactive)	> 10 µM (inactive)	> 10 µM (inactive)	> 10 µM (inactive)	> 10 µM (inactive)	> 10 µM (inactive)		> 10 µM (inactive)	> 10 µM (inactive)	> 10 µM (inactive)	> 10 µM (inactive)	> 10 µM (inactive)	> 10 µM (inactive)	> 10 µM (inactive)	> 10 µM (inactive)	> 10 µM (inactive)	> 10 µM (inactive)	
CCOP(=O)(C/C=C/Cn1ncc(=O)[nH]c1=O)OCC	> 100 µM (inactive)	> 100 µM (inactive)	> 100 µM (inactive)	> 100 µM (inactive)	> 100 µM (inactive)	> 100 µM (inactive)	> 100 µM (inactive)		> 100 µM (inactive)	> 100 µM (inactive)	> 100 µM (inactive)	> 100 µM (inactive)	> 100 µM (inactive)	> 100 µM (inactive)	> 100 µM (inactive)	> 100 µM (inactive)	> 100 µM (inactive)	> 100 µM (inactive)	
C[C@@H]1OC(=O)/C(=C\N(C)C)[C@H]2CC(=O)N(CCc3cn(S(=O)(=O)C(F)(F)F)c4ccccc34)C[C@H]12	> 100 µM (inactive)	> 100 µM (inactive)	> 100 µM (inactive)	> 100 µM (inactive)	> 100 µM (inactive)	> 100 µM (inactive)	> 100 µM (inactive)		> 100 µM (inactive)	> 100 µM (inactive)	> 100 µM (inactive)	> 100 µM (inactive)	> 100 µM (inactive)	> 100 µM (inactive)	> 100 µM (inactive)	> 100 µM (inactive)	> 100 µM (inactive)	> 100 µM (inactive)	
O=C(OCc1c(-c2ccccc2)nn(-c2ccccc2)c1COC(=O)Oc1ccccc1)Oc1ccccc1	> 100 µM (inactive)	> 100 µM (inactive)	> 100 µM (inactive)	> 100 µM (inactive)	> 100 µM (inactive)	> 100 µM (inactive)	> 100 µM (inactive)		> 100 µM (inactive)	> 100 µM (inactive)	> 100 µM (inactive)	> 100 µM (inactive)	> 100 µM (inactive)	> 100 µM (inactive)	31.8 µM (inactive)	> 100 µM (inactive)	> 100 µM (inactive)	> 100 µM (inactive)	
Cc1cc(N(CCC#N)CCC#N)ccc1/C=C/C(=O)Nc1ccccc1Cl	> 100 µM (inactive)	> 100 µM (inactive)	> 100 µM (inactive)	> 100 µM (inactive)	> 100 µM (inactive)	> 100 µM (inactive)	> 100 µM (inactive)	> 100 µM (inactive)	> 100 µM (inactive)	> 100 µM (inactive)	> 100 µM (inactive)			> 100 µM (inactive)	> 100 µM (inactive)	> 100 µM (inactive)	> 100 µM (inactive)		> 100 µM (inactive)
COC1/C=C/C(C)C(OC)CC(O)/C=C/C(C)C(C(C)C(OC)C(C)CCC(=O)C(C)C(C/C=C/N(C)C=O)OC)OC(=O)/C=C/C=C(\C)CC(OC)C(OC)C2=CC(=O)O[C@@H](C(C)C(OC)C1)[C@H]2O (some centres undefined)	0.0681 µM (active)	0.0384 µM (active)	0.0518 µM (active)	0.346 µM (active)	0.0341 µM (active)	0.0361 µM (active)	0.08 µM (active)		0.0303 µM (active)	0.0446 µM (active)	0.00596 µM (active)	0.0522 µM (active)	0.039 µM (active)	0.0182 µM (active)	0.0387 µM (active)	0.0289 µM (active)	0.0421 µM (active)	0.0251 µM (active)	
O=Cc1ccc(-c2cccc([N+](=O)[O-])c2)s1	41.2 µM (inactive)	> 100 µM (inactive)	> 100 µM (inactive)	67 µM (inactive)	> 100 µM (inactive)	> 100 µM (inactive)	71.4 µM (inactive)		45.4 µM (inactive)	> 100 µM (inactive)	> 100 µM (inactive)	94.6 µM (inactive)	54.3 µM (inactive)	> 100 µM (inactive)	> 100 µM (inactive)	16.9 µM (inactive)	> 100 µM (inactive)	> 100 µM (inactive)	
CN(CCC#N)c1ccc(/C=C2\SC(=S)NC2=O)cc1	42 µM (inactive)	67.6 µM (inactive)	34.1 µM (inactive)	34 µM (inactive)	> 100 µM (inactive)	58.2 µM (inactive)	> 100 µM (inactive)		32.8 µM (inactive)	40.1 µM (inactive)	27.7 µM (inactive)	> 100 µM (inactive)	23.6 µM (inactive)	51.6 µM (inactive)	52 µM (inactive)	30.1 µM (inactive)	62.8 µM (inactive)	46.6 µM (inactive)	
NC(=O)CCCC(NCc1c2ccccc2nc2ccccc12)C(=O)O (centres undefined)	17.9 µM (inactive)	42.4 µM (inactive)	56.1 µM (inactive)	22.8 µM (inactive)	48.5 µM (inactive)	50.9 µM (inactive)	56.6 µM (inactive)	28.2 µM (inactive)	> 100 µM (inactive)	> 100 µM (inactive)	37.9 µM (inactive)		51.8 µM (inactive)	50.9 µM (inactive)	94.6 µM (inactive)		11.1 µM (inactive)		37.2 µM (inactive)
CN1C(=O)c2ccccc2OC12C=Cc1c(ccc3ccccc13)O2 (centres undefined)	3.53 µM (inactive)	3.03 µM (inactive)	3.47 µM (inactive)	3.02 µM (inactive)	3.5 µM (inactive)	3.64 µM (inactive)	2.32 µM (inactive)		3.42 µM (inactive)	14.2 µM (inactive)	4.03 µM (inactive)	2.38 µM (inactive)	3.85 µM (inactive)	3.95 µM (inactive)	6.05 µM (inactive)	12.9 µM (inactive)	5.56 µM (inactive)	4.4 µM (inactive)	
Cc1sc2nc3n(c(=O)c2c1C)N=CN(c1ccc(F)cc1)C3	> 100 µM (inactive)	> 100 µM (inactive)	43.9 µM (inactive)	> 100 µM (inactive)	61.9 µM (inactive)	> 100 µM (inactive)	> 100 µM (inactive)		50.1 µM (inactive)	> 100 µM (inactive)	> 100 µM (inactive)	> 100 µM (inactive)	> 100 µM (inactive)	59.6 µM (inactive)	> 100 µM (inactive)	26.9 µM (inactive)	18.7 µM (inactive)	> 100 µM (inactive)	
C=C1C[C@@H]2CC[C@@]34CC5O[C@H]6C(O[C@H]7CC[C@H](CC(=O)O[C@@H]8[C@@H](C)[C@@H]9O[C@@H]%10C[C@]%11(C[C@@H]%12O[C@]%13(C[C@H](C)[C@@H]%14O[C@@H]%15CC(C(O)CO)O[C@@H]%15C[C@@H]%14O%13)C[C@H](C)[C@@H]%12O%11)O[C@@H]%10C[C@@H]9O[C@H]8CC8O[C@@H](CC[C@@H]1O2)C[C@@H](C)C8(O)CO)O[C@@H]7[C@@H]6O3)[C@H]5O4 (some centres undefined)	> 1 µM (active)	> 0.944 µM (active)	> 0.891 µM (active)	> 0.849 µM (active)	0.516 µM (active)	> 0.736 µM (active)	> 1 µM (active)		> 1 µM (active)	> 0.959 µM (active)	0.594 µM (active)	> 1 µM (active)	0.516 µM (active)	> 1 µM (active)	0.624 µM (active)	> 1 µM (active)	> 1 µM (active)	0.579 µM (active)	
